Key:
Experiment in all cases: relative viability (nuclei count vs DMSO), 5 days (fraction); higher = more cells survive
[1] = compound: Nc1ncn([C@H]2C[C@H](O)[C@@H](CO)O2)c(=O)n1 [Decitabine] + Cc1nc(NC(=O)N2CCC[C@H]2C(N)=O)sc1-c1ccnc(C(C)(C)C(F)(F)F)c1 [Alpelisib] (partner 2 µM)
Summary of the method: (§1)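 Dosing by pin tool came one day after lung cancer cell lines were seeded in 1536-well plates, using either one drug or a fixed anchor-drug dose plus five library-drug doses (not always all listed) in √10 steps. After 5 days, nuclei were counted on 4× images. Relative viability is treated-well nuclei count divided by vehicle-well nuclei count, and values are medians of duplicate plates.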

[2] = compound: Nc1ncn([C@H]2C[C@H](O)[C@@H](CO)O2)c(=O)n1 [Decitabine] + N=C(N)NC(=N)NCCc1ccccc1 [Phenformin] (partner 250 µM)
Summary of the method: as §1

[3] = compound: O=C(C[C@H]1NCCC[C@@H]1O)Cn1cnc2cc(Br)c(Cl)cc2c1=O (racemic) [Halofuginone] + COc1cc2c(Oc3ccc(NC(=O)C4(C(=O)Nc5ccc(F)cc5)CC4)cc3F)ccnc2cc1OCCCN1CCOCC1 [Foretinib] (partner 0.25 µM)
Summary of the method: as §1

[4] = compound: COc1cc2c(Oc3ccc4[nH]c(C)cc4c3F)ncnc2cc1OCCCN1CCCC1 [Cediranib] + Cc1nc(NC(=O)N2CCC[C@H]2C(N)=O)sc1-c1ccnc(C(C)(C)C(F)(F)F)c1 [Alpelisib] (partner 2 µM)
Summary of the method: as §1

UMC-11 showed a relative viability ([1]; first compound 0.04 µM) of 0.848, a relative viability ([1]; first compound 0.1265 µM) of 0.535 and a relative viability ([1]; first compound 0.4 µM) of 0.481. It also gave a relative viability ([1]; first compound 1.265 µM) of 0.309, a relative viability ([1]; first compound 4 µM) of 0.281 and a relative viability ([2]; first compound 0.04 µM) of 0.31. It also gave a relative viability ([2]; first compound 0.1265 µM) of 0.32, a relative viability ([2]; first compound 0.4 µM) of 0.308 and a relative viability ([2]; first compound 1.265 µM) of 0.266. The relative viability ([2]; first compound 4 µM) was 0.274, the relative viability ([3]; first compound 0.001 µM) was 1.11 and the relative viability ([3]; first compound 0.003162 µM) was 1. For the same cell line, the relative viability ([3]; first compound 0.01 µM) was 0.991, the relative viability ([3]; first compound 0.03162 µM) was 0.848 and the relative viability ([3]; first compound 0.1 µM) was 0.72. It also gave a relative viability ([4]; first compound 0.04 µM) of 1.06, a relative viability ([4]; first compound 0.1265 µM) of 0.879 and a relative viability ([4]; first compound 0.4 µM) of 0.934. For the same cell line, the relative viability ([4]; first compound 1.265 µM) was 0.984 and the relative viability ([4]; first compound 4 µM) was 0.922.
